The values below come from ChEMBL document CHEMBL2074472, “In vitro and in vivo reversal of cancer cell multidrug resistance by the semi-synthetic antibiotic tiamulin” (Biochem Pharmacol, 1998).

Structures are written as SMILES.

Holding throughout (assay type): functional, cell-based
Data set [1] has as its target ATP-dependent translocase ABCB1 (Homo sapiens, UniProt P08183). Kind of data set: TP_TRANSPORTER: increase in Daunomycin intracellular accumulation (Daunomycin: 1.9 uM, Tiamulin: 2 uM) in CEM/VLB3.6 cells, flow cytometry. The conditions noted are these: cem/vlb3.6, 2 µM.
In data set [2] the target is ATP-dependent translocase ABCB1 (Mus musculus, UniProt P21447). Briefly: TP_TRANSPORTER: increase in Daunomycin intracellular accumulation (Daunomycin: 1.9 uM, Tiamulin: 2 uM) in P388/ADR25 cells, flow cytometry. Conditions: p388/adr25, 2 µM. In general terms: Flow cytometry measures light scatter and fluorescence of single cells or particles in a stream.
Data set [3] deals with Multidrug resistance protein 1a (Rattus norvegicus) (UniProt Q6PSM0). Kind of data set: TP_TRANSPORTER: increase in Daunomycin intracellular accumulation (Daunomycin: 1.9 uM, Tiamulin: 2 uM) in AS30-D/COL10 cells, flow cytometry.
Multidrug resistance protein 1a (Rattus norvegicus), sequence (Q6PSM0 as listed by the source): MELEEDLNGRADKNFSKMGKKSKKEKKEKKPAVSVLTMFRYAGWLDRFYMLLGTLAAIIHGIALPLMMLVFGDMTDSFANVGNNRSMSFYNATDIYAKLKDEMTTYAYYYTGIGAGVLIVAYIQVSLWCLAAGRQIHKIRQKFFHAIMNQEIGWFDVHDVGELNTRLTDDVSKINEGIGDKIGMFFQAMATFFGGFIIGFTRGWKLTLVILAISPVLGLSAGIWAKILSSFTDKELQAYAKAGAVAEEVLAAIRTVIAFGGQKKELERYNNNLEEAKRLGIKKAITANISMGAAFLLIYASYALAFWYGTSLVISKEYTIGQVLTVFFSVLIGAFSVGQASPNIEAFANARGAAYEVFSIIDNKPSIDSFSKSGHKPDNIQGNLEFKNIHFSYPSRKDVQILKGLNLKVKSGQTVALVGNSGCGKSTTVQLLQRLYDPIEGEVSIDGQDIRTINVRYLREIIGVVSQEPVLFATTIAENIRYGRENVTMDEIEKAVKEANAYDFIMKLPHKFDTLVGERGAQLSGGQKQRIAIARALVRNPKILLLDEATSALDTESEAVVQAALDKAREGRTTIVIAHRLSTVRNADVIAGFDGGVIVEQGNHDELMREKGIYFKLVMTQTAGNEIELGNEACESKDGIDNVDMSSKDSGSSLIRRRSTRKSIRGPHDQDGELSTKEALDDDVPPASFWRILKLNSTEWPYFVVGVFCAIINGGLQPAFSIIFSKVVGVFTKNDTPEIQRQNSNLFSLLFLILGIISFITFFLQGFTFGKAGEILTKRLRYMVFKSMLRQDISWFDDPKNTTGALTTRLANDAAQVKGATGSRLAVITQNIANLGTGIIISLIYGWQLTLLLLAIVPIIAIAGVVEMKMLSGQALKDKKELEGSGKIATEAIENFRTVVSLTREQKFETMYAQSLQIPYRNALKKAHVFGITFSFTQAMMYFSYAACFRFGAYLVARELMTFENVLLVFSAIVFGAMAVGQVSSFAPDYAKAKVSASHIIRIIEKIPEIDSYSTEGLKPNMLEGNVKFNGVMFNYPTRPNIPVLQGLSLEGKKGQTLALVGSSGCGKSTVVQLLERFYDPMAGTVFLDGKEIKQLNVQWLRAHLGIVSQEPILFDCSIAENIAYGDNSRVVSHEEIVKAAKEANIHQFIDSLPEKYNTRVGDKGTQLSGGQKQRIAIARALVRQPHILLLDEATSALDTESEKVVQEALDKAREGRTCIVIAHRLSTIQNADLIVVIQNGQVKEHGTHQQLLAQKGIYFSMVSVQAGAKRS

ATP-dependent translocase ABCB1 (Homo sapiens, UniProt P08183), sequence (P08183 whole entry): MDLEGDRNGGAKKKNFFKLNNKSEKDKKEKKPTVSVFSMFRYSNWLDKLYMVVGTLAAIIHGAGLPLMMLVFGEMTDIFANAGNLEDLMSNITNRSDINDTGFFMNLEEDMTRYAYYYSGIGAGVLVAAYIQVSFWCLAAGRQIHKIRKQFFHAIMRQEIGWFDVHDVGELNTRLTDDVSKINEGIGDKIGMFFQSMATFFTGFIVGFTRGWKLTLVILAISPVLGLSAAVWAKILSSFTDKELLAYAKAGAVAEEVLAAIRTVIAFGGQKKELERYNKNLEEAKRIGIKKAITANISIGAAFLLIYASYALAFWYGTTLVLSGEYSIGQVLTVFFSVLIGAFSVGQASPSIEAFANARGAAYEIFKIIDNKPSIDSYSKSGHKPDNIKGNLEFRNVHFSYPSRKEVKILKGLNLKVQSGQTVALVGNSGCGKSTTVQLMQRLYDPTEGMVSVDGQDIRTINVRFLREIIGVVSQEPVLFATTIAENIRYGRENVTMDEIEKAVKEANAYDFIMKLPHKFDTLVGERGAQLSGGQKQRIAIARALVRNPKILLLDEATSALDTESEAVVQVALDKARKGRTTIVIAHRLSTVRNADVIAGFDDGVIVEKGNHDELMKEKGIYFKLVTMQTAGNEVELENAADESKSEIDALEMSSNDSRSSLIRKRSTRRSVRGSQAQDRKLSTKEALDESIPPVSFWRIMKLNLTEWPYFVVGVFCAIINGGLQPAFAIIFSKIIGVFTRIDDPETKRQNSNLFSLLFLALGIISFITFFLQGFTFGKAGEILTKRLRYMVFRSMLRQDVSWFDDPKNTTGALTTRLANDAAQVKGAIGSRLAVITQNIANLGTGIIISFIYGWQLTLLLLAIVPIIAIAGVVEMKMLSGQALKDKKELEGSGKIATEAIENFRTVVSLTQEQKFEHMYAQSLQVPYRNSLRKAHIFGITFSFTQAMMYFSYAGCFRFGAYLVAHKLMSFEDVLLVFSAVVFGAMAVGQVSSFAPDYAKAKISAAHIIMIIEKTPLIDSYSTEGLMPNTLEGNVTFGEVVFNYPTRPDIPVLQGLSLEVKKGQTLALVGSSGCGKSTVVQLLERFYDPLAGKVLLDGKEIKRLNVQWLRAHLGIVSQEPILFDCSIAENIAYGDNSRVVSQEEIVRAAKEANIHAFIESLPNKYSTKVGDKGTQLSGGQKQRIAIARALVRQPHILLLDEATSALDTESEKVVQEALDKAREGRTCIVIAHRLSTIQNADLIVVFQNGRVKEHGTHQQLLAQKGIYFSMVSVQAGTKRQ
ATP-dependent translocase ABCB1 (Mus musculus, UniProt P21447), sequence (P21447 whole entry): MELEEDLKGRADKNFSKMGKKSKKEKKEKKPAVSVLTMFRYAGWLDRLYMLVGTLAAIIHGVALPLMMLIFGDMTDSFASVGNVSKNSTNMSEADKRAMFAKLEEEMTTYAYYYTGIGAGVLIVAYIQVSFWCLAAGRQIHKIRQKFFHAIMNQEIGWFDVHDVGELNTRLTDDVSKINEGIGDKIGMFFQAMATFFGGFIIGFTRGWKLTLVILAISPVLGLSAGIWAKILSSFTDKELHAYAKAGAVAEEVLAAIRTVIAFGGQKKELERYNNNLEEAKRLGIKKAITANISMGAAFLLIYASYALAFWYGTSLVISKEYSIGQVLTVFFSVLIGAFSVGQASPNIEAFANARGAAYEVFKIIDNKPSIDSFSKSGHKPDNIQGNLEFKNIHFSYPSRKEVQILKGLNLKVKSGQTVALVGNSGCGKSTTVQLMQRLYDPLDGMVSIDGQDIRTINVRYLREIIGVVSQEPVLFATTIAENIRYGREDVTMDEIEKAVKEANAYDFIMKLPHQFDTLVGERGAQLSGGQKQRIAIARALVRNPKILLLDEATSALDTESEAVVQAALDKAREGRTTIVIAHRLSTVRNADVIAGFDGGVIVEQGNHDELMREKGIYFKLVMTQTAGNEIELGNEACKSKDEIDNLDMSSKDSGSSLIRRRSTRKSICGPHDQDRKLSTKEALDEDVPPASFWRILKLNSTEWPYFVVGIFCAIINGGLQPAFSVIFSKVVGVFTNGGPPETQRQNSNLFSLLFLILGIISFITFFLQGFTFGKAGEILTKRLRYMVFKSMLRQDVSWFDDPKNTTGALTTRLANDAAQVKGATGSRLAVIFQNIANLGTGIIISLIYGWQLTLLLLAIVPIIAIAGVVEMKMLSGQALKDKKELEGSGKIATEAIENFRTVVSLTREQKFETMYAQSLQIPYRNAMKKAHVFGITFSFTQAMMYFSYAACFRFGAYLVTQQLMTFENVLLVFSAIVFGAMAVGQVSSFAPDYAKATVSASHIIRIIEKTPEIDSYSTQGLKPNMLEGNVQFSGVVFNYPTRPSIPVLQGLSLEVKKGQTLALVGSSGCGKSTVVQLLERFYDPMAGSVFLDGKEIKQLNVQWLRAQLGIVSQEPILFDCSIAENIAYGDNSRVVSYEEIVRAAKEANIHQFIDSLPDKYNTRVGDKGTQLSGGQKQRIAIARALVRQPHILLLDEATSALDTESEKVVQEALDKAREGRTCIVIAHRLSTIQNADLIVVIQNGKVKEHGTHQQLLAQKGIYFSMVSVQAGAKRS

As for `C=C[C@]1(C)C[C@@H](OC(=O)CSCCN(CC)CC)[C@]2(C)[C@H](C)CC[C@]3(CCC(=O)[C@H]32)[C@@H](C)[C@@H]1O` [TIAMULIN], the Activity entry in data set [1], in data set [2] and in data set [3] was “inhibitor [+]” in each case.
